Literature values, collected in patent publication EP0243248A1, “Compositions for the treatment of baldness and alopecia” (LABORATOIRES PHARMACEUTIQUES ROCHE-POSAY, priority 1986, dated 1987).

Conditions: for solubilité dans l'alcool: alcohol, in words; for solubilité dans les solutions alcalines / en milieu alcalin: alkaline solutions / alkaline medium; for solubilité dans l'eau: water

Row | SMILES | solubilité dans l'alcool | solubilité dans les solutions alcalines / en milieu alcalin | solubilité dans l'eau | solubilité dans le chloroforme (chloroform) | solubilité dans l'ether (ether)
1 | CC1=NS(=O)(=O)c2cc(Cl)ccc2N1 [diazoxyde, chloro-7 méthyl-3 benzothiadiazine 1, 2,4 dioxyde-1,1] | solubles | solubles | insolubles | – | –
2 | O=C1NC(=O)C(c2ccccc2)(c2ccccc2)N1 [Phenytoïne, diphényl-5,5 imidazolidinedione-2,4] | – | – | pratiquement insoluble | – | –
3 | O=C1NC(=O)C(c2ccccc2)(c2ccccc2)N1 [diphénylhydantoï-nate de sodium] | un peu soluble | soluble | un peu soluble | insoluble | insoluble
